Results as given in PubChem BioAssay (NCI).
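Five concentrations, 48 hours, 96-well plates. GI50 is the concentration that inhibits growth by half. TGI denotes the concentration required for complete inhibition of growth.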

Legend:
Experiment in all cases: growth of human tumour cells (NCI), 48 h
NCI-H460 lung = test system: NCI-H460 lung
SF-539 CNS = test system: SF-539 CNS
ACHN renal = test system: ACHN renal
U251 CNS = test system: U251 CNS
A549 NSCLC = test system: A549 NSCLC
OVCAR-8 ovarian = test system: OVCAR-8 ovarian
KM12 colon = test system: KM12 colon
SK-MEL-2 melanoma = test system: SK-MEL-2 melanoma
SK-MEL-5 melanoma = test system: SK-MEL-5 melanoma
HS 578T breast = test system: HS 578T breast

O=C(O)CCCc1cc2c(s1)-c1cccc3cccc-2c13
TGI (NCI-H460 lung): > 100 µM
TGI (SF-539 CNS): > 100 µM
TGI (ACHN renal): 76 µM
TGI (U251 CNS): 53.8 µM
TGI (A549 NSCLC): > 100 µM
TGI (OVCAR-8 ovarian): > 100 µM
TGI (KM12 colon): 42.3 µM
TGI (SK-MEL-2 melanoma): 46.3 µM

CC(O)c1ccc(C(O)/C(=N\NC(=O)c2ccncc2)c2nc3ccc([N+](=O)[O-])cc3[nH]c2=O)cc1 (stereo unspecified)
TGI (NCI-H460 lung): > 100 µM
TGI (SF-539 CNS): > 100 µM
TGI (ACHN renal): > 100 µM
TGI (U251 CNS): > 100 µM
TGI (A549 NSCLC): > 100 µM
TGI (SK-MEL-5 melanoma): > 100 µM
TGI (OVCAR-8 ovarian): > 100 µM
TGI (KM12 colon): > 100 µM

COc1cc2oc(-c3ccc(O)cc3)cc(=O)c2c(OC)c1O
TGI (HS 578T breast): > 100 µM
TGI (NCI-H460 lung): > 100 µM
TGI (SF-539 CNS): > 100 µM
TGI (ACHN renal): > 100 µM
TGI (U251 CNS): > 100 µM
TGI (A549 NSCLC): > 100 µM
TGI (SK-MEL-5 melanoma): > 100 µM
TGI (OVCAR-8 ovarian): > 100 µM
TGI (SK-MEL-2 melanoma): > 100 µM

Cc1cc(N(CCC#N)CCC#N)ccc1CC1N=C(c2ccccc2)OC1=O (stereo unspecified)
TGI (NCI-H460 lung): > 100 µM
TGI (SF-539 CNS): > 100 µM
TGI (ACHN renal): > 100 µM
TGI (U251 CNS): > 100 µM
TGI (A549 NSCLC): > 100 µM
TGI (SK-MEL-5 melanoma): > 100 µM
TGI (OVCAR-8 ovarian): > 100 µM
TGI (KM12 colon): > 100 µM
TGI (SK-MEL-2 melanoma): > 100 µM

CCOC(=O)Nc1cc(-c2ccc(C)c(NS(C)(=O)=O)c2)nn2c(C)nnc12
GI50 (HS 578T breast): 0.563 µM
TGI (HS 578T breast): 6.82 µM
GI50 (NCI-H460 lung): 2.04 µM
TGI (NCI-H460 lung): > 100 µM
GI50 (SF-539 CNS): 1.86 µM
TGI (SF-539 CNS): > 100 µM
GI50 (ACHN renal): 2.64 µM
TGI (ACHN renal): 60.7 µM
GI50 (A549 NSCLC): 3.07 µM
TGI (A549 NSCLC): > 100 µM
GI50 (SK-MEL-5 melanoma): 2.68 µM
TGI (SK-MEL-5 melanoma): 10.4 µM
GI50 (OVCAR-8 ovarian): 2.04 µM
TGI (OVCAR-8 ovarian): > 100 µM
GI50 (KM12 colon): 2.02 µM
TGI (KM12 colon): 19.7 µM

CCOC(=O)Cn1c(=O)[nH]c(=O)c2[nH]cnc21
TGI (NCI-H460 lung): > 100 µM
TGI (SF-539 CNS): > 100 µM
TGI (ACHN renal): > 100 µM
TGI (U251 CNS): > 100 µM
TGI (A549 NSCLC): > 100 µM
TGI (SK-MEL-5 melanoma): > 100 µM
TGI (OVCAR-8 ovarian): > 100 µM
TGI (KM12 colon): > 100 µM
TGI (SK-MEL-2 melanoma): > 100 µM

CSCC(COC(C)=O)(CSC)c1ccncc1
TGI (NCI-H460 lung): > 100 µM
TGI (SF-539 CNS): > 100 µM
TGI (ACHN renal): > 100 µM
TGI (U251 CNS): > 100 µM
TGI (A549 NSCLC): > 100 µM
TGI (SK-MEL-5 melanoma): > 100 µM
TGI (OVCAR-8 ovarian): > 100 µM
TGI (KM12 colon): > 100 µM
TGI (SK-MEL-2 melanoma): > 100 µM

O=C(CC(=O)N1N=C(c2ccccc2)C(N=Nc2ccccc2Cl)C1=O)Nc1ccccc1Cl (stereo unspecified)
TGI (NCI-H460 lung): > 100 µM
TGI (SF-539 CNS): > 100 µM
TGI (ACHN renal): 99.6 µM
TGI (U251 CNS): > 100 µM
TGI (A549 NSCLC): > 100 µM
TGI (SK-MEL-5 melanoma): 52.5 µM
TGI (OVCAR-8 ovarian): > 100 µM
TGI (KM12 colon): > 100 µM
TGI (SK-MEL-2 melanoma): > 100 µM

COc1ccc(NC(=O)C2=CC(=O)c3ccc(O)cc3C2=O)c(OC)c1
TGI (NCI-H460 lung): > 100 µM
TGI (SF-539 CNS): > 100 µM
TGI (ACHN renal): > 100 µM
TGI (U251 CNS): > 100 µM
TGI (A549 NSCLC): > 100 µM
TGI (SK-MEL-5 melanoma): > 100 µM
TGI (OVCAR-8 ovarian): > 100 µM
TGI (KM12 colon): > 100 µM

CCCCC1N=CNc2c1ccc1c2[nH]c2ccccc21 (stereo unspecified)
TGI (NCI-H460 lung): 4.22 µM
TGI (SF-539 CNS): 7.91 µM
TGI (ACHN renal): 5.45 µM
TGI (U251 CNS): 16.5 µM
TGI (A549 NSCLC): 10.6 µM
TGI (SK-MEL-5 melanoma): 2.95 µM
TGI (KM12 colon): 41.8 µM
TGI (SK-MEL-2 melanoma): 8.89 µM

O=[P+](O)c1cccnc1
TGI (NCI-H460 lung): > 100 µM
TGI (SF-539 CNS): > 100 µM
TGI (ACHN renal): > 100 µM
TGI (U251 CNS): > 100 µM
TGI (A549 NSCLC): > 100 µM
TGI (SK-MEL-5 melanoma): > 100 µM
TGI (OVCAR-8 ovarian): > 100 µM
TGI (KM12 colon): > 100 µM
